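Protocol summary: plate cells (96-well), add compound at 5 concentrations, incubate 48 h, interpolate endpoints linearly. GI50 marks 50% less growth.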 Activity calls are given as the source filed them. No stated cut-off is given here; in the data, active = GI50 up to about 1.1 µM and inactive = higher.
What was measured:
Experiment in all cases: NCI-60 cell line screen, 48 h
[1] = test system: A498
[2] = test system: A549
[3] = test system: BT-549
[4] = test system: CAKI-1
[5] = test system: DU-145
[6] = test system: HCT-15
[7] = test system: HL-60
[8] = test system: LOX IMVI
[9] = test system: MDA-MB-435
[10] = test system: NCI-H460
[11] = test system: NCI-H522
[12] = test system: PC-3
[13] = test system: SK-MEL-2
[14] = test system: SK-MEL-5
[15] = test system: SK-OV-3
[16] = test system: SNB-19
[17] = test system: SR
[18] = test system: T47D
[19] = test system: TK-10
[20] = test system: RPMI-8226

| SMILES | GI50 [1] | GI50 [2] | GI50 [3] | GI50 [4] | GI50 [5] | GI50 [6] [µM] | GI50 [7] | GI50 [8] | GI50 [9] | GI50 [10] | GI50 [11] | GI50 [12] | GI50 [13] | GI50 [14] | GI50 [15] | GI50 [16] | GI50 [17] | GI50 [18] | GI50 [19] | GI50 [20] |
| --- | --- | --- | --- | --- | --- | --- | --- | --- | --- | --- | --- | --- | --- | --- | --- | --- | --- | --- | --- | --- |
| CC(C)C(C/C=C1\CC(CO)(COC(=O)CC(C(C)C)C(C)C)OC1=O)C(C)C (stereo unspecified) | 11.7 µM (inactive) | 3.72 µM (inactive) | 14.6 µM (inactive) | 6.87 µM (inactive) | 8.85 µM (inactive) | 18.5 | 2.74 µM (inactive) | 12.6 µM (inactive) | 7.06 µM (inactive) | 4.07 µM (inactive) | 13.8 µM (inactive) | 11.7 µM (inactive) | 20.9 µM (inactive) | 11 µM (inactive) | 17.7 µM (inactive) | 13.3 µM (inactive) | 12.4 µM (inactive) | 13.3 µM (inactive) | 7.31 µM (inactive) | – |
| O=C(O)c1cccc(/[As]=[As]\c2cccc(C(=O)O)c2)c1 (stereo unspecified) | 28 µM (inactive) | > 100 µM (inactive) | 70.6 µM (inactive) | 16.4 µM (inactive) | 86.5 µM (inactive) | 36.3 | – | 18.2 µM (inactive) | 52.1 µM (inactive) | 36 µM (inactive) | 17.9 µM (inactive) | 16.9 µM (inactive) | 21.7 µM (inactive) | 32.7 µM (inactive) | – | 32.2 µM (inactive) | 28.7 µM (inactive) | 34.9 µM (inactive) | 23.2 µM (inactive) | 23 µM (inactive) |
| CC(=O)O.CN1CCN(CN2C(=O)C3C4C=CC(C3C2=O)C2C3C(=O)N(CN5CCN(C)CC5)C(=O)C3C42)CC1 (stereo unspecified) | > 55.3 µM (inactive) | 22 µM (inactive) | 25.5 µM (inactive) | – | 25.1 µM (inactive) | 18.9 | – | 18.2 µM (inactive) | 17.1 µM (inactive) | 16.3 µM (inactive) | 18.6 µM (inactive) | 33.7 µM (inactive) | – | 23.4 µM (inactive) | – | – | 13.4 µM (inactive) | 30 µM (inactive) | 45.3 µM (inactive) | 22.2 µM (inactive) |
| NS(=O)(=O)c1ccc(-c2ccc([As](=O)(O)O)cc2)cc1 | – | > 100 µM (inactive) | > 100 µM (inactive) | > 100 µM (inactive) | > 100 µM (inactive) | > 100 | > 100 µM (inactive) | > 100 µM (inactive) | > 100 µM (inactive) | > 100 µM (inactive) | > 100 µM (inactive) | > 100 µM (inactive) | > 100 µM (inactive) | > 100 µM (inactive) | > 100 µM (inactive) | > 100 µM (inactive) | > 100 µM (inactive) | > 100 µM (inactive) | > 100 µM (inactive) | > 100 µM (inactive) |
| COc1cc([C@@H]2c3cc4c(cc3[C@H](OC3OC5COC(C(C)C)OC5C(O)C3O)C3COC(=O)[C@@H]32)OCO4)cc(OC)c1O (stereo partly specified) | 10.7 µM (inactive) | 8.67 µM (inactive) | 3.42 µM (inactive) | 4.27 µM (inactive) | – | 10.3 | 1.99 µM (inactive) | 12.2 µM (inactive) | 4.58 µM (inactive) | 2.04 µM (inactive) | 14 µM (inactive) | 4.08 µM (inactive) | 17.3 µM (inactive) | 7.33 µM (inactive) | 17.3 µM (inactive) | 14.6 µM (inactive) | 1.47 µM (inactive) | 26.6 µM (inactive) | 23.5 µM (inactive) | 5.2 µM (inactive) |
| CC1CCN(c2nnc(Cl)cc2C(=O)c2ccccc2)CC1 | 35.7 µM (inactive) | 32.1 µM (inactive) | 30.3 µM (inactive) | 17.9 µM (inactive) | 38.3 µM (inactive) | 35.6 | 44.4 µM (inactive) | 29.4 µM (inactive) | 21.5 µM (inactive) | 29.5 µM (inactive) | 26.7 µM (inactive) | 20.4 µM (inactive) | 18.5 µM (inactive) | 16.6 µM (inactive) | – | 26.9 µM (inactive) | 17.5 µM (inactive) | 31.5 µM (inactive) | 37.6 µM (inactive) | – |
| O=C(NNC(=S)Nc1ccc(Br)cc1)c1cc(-c2ccccc2)nc2ccccc12 | 13.8 µM (inactive) | 21 µM (inactive) | 24.5 µM (inactive) | 29.8 µM (inactive) | 19.9 µM (inactive) | 24 | – | – | 17.1 µM (inactive) | 20.8 µM (inactive) | 22.2 µM (inactive) | 20.1 µM (inactive) | 20 µM (inactive) | 15.8 µM (inactive) | 25.2 µM (inactive) | 27.2 µM (inactive) | 20.4 µM (inactive) | 17.1 µM (inactive) | 14.9 µM (inactive) | 14.3 µM (inactive) |

From ChEMBL document CHEMBL1201862, “PubChem BioAssay data set” (2004)
